Molecules are shown by their SMILES.

The values below come from patent US11912645B2, “Lipopeptide compounds for the treatment of pain disorders” (INSERM (Institut National de la Santé et de la Recherche …, priority 2017, dated 2024).

One series deals with Caco-2 cells. Nature of the series: Paracellular permeability, 4 kDa FITC-dextran flux across Caco-2 monolayer. Type of series: cell-based, human. The following applies: 10 μM apical, 24 h. The protocol: FIG. 5: C12-Asn-GABA crosses the epithelial barrier without modifying epithelial cells physiology. Caco-2 cells were cultivated into transwell chambers. After treatment with C12-Asn-GABA (800 ng) at the apical side, C12-Asn-GABA was quantified inside the cells and both the apical and basolateral compartments by LC-MS/MS (A); data are represented as mean±SEM, n=3 experiments of 3 wells per condition. Extracted ion chromatogram at the exact mass of GABA (104.0702 m/z) with a mass accuracy of 5 ppm of the GABA commercial standard (GABA (Std.) and apical and basolateral compartments after loading or not Caco-2 cells with 800 ng of GABA at the apical site (B); representation of one well, n=3 experiments of 3 wells per condition. Paracellular permeability assessed by the passage of FITC-dextran loaded at the apical side (C) and CXCL8 secretion assessed by ELISA (D) were monitored after treatment of Caco-2 cells at the apical side with C12-Asn-GABA (10 μM); data are represented as mean±SEM, n=3 experiments of 3 wells per condition. […]
To assess the effect of C12-Asn-GABA on paracellular permeability, transport of dextran 4 kDa FITC across a Caco-2 cell monolayer was investigated. […] In parallel, the release of CXCL8 from Caco-2 cells into the medium, of both apical and basolateral sides of the transwell, was assessed by ELISA. […]
A general note: Passage across Caco-2 layers is used to estimate intestinal permeability.

Series [1] has as its system capsaicin-induced visceral hypersensitivity. The series is described as follows: Capsaicin-induced visceral hypersensitivity, visceromotor response to colorectal distension. Type of series: in vivo, mouse. The protocol:
(§1) FIG. 6: C12-Asn-GABA inhibits capsaicin-induced visceral hypersensitivity without altering Intestinal contraction. Mice received intracolonic administration of C12-Asn-GABA (10 μM; black symbols) or vehicle (40% ethanol; white symbols) and 30 minutes or 4 hours later colon (A) and blood (B) were harvested in order to quantify C12-Asn-GABA by LC-MS/MS. Data are expressed as mean±SEM, n=8 mice per group. […] Mice received intracolonic administration of C12-Asn-GABA (10 μM; black symbols) or vehicle (40% ethanol; white symbols) and 30 minutes or 4 hours later an intracolonic administration of capsaicin (100 μg/mouse; square) or its vehicle (40% ethanol; circle). Fifteen minutes after capsaicin or vehicle treatment, visceromotor response (VMR) to increasing pressures of colorectal distension was performed. Data are expressed as mean±SEM, n=7-8 mice per group. […] Ex vivo measurement of duodenal mechanical contraction frequency (B) and amplitude (C) in response to Krebs-Ringer solution (control; white bar), to DMSO 0.2% (vehicle; gray bar) or to C12-Asn-GABA (10 μM; black bar). Data are expressed as mean±SEM, n=5-6 per group. Statistical analysis was performed using Kruskal-Wallis analysis of variance and subsequent Dunn's post hoc test.
FIG. 8: Trimebutine maleate has no effect on capsaicin-induced visceral hypersensitivity. Mice received an oral treatment with vehicle (PEG200, white circle) or with trimebutine maleate (25 mg/kg, black circle) and 4 hours later an intracolonic administration of capsaicin (100 μg/mouse; black and white circle). Fifteen minutes after capsaicin, visceromotor response (VMR) to increasing pressures of colorectal distension was performed. Data are expressed as mean±SEM, n=7-8 mice per group. […]
In a first set of experiment, we assessed the ability of the C12-Asn-GABA to cross the epithelial barrier, in vivo. […] The impact of C12-Asn-GABA on visceral hypersensitivity was assessed by measuring the visceromotor responses (VMR) to colorectal distension (CRD). […]

The subject of another series is duodenal preparations. The series is described as follows: Ex vivo duodenal mechanical contraction (isotonic sensors). The arrangement: species or system mouse. The following applies: 10 μM, vs control and vehicle. The protocol: as §1, with “Statistical analysis was performed using Kruskal-Wallis analysis of variance and subsequent Dunn's post hoc test.” left out
IBS patients are characterized by diverse alterations of gut transit: diarrhea, constipation or mixed^1, thus a drug impairing bowel motility could limit its putative use in this pathology. We evaluated whether C12-Asn-GABA was capable of impairing duodenal motility. […]

`CCCCCCCCCCCC(=O)NC(CC(N)=O)C(=O)NCCCC(=O)O` (centres unmarked) [C12-Asn-GABA, C11 C(O)-Asn-gamma-aminobutyric acid]: in the series on Caco-2 cells, the “percentage of 4 kDa FITC traversing the cell monolayers (paracellular permeability)” value was “not modified”. For the same compound, in series [1] (100 μL intracolonic 10 μM pretreatment, capsaicin 100 μg/animal, CRD 15-60 mm Hg), the “capsaicin-evoked increase in VMR to CRD” value was “significantly prevented for all distension pressures”. In series [1] (intracolonic 10 μM, no capsaicin), the “visceral sensitivity in response to CRD in the absence of capsaicin” value is “did not modify visceral sensitivity”. In the series on duodenal preparations, the “amplitude of intestinal contractions” value is “nor the amplitude of intestinal contractions” and the “frequency of duodenal contractions” value was “impairs neither the frequency of contractions”.
